Data set [1] addresses Acetylcholinesterase (Electrophorus electricus, UniProt O42275). The data set is described as follows: Inhibition of electric eel AChE using acetylthiocholine iodide as substrate measured for 30 mins by Ellman's method. For orientation: DTNB colorimetry detects thiols as they appear.
Data set [2] can be described thus: Neurotoxicity in Wistar rat primary cortical neurons assessed as cell viability at 0.001 to 100 uM incubated for 24 hrs by LDH assay. In kind it is toxicity, cell-based. As to conditions: cortical neurone, dose 0.001-100 µM.
The nature of data set [3]: Neurotoxicity in Wistar rat primary cortical neurons assessed as inhibition of cell viability incubated for 24 hrs by LDH assay. In kind it is toxicity, cell-based, Cortical neurone. Particulars: for IC50 at 24 h: Wistar, primary cortical neurons; for Activity: cortical neurone, 24 h.
For data set [4], the system named is Cortical neurone. The data set can be described thus: Neuroprotective activity against glutamate-induced excitotoxicity in Wistar rat primary cortical neurons assessed as cell death at 1 uM pretreated with compound for 24 hrs followed by incubation with glutamate for 20 mins by LDH assay relative to control. The data set is classed as functional. Particulars: time 1460 min, 24.33 h.

In data set [5] the test system is Cortical neurone. The data set can be described thus: Neuroprotective activity against glutamate-induced excitotoxicity in Wistar rat primary cortical neurons assessed as cell death at 1 uM pretreated with glutamate followed by compound addition measured after 24 hrs by LDH assay relative to control. The data set is classed as functional.
Data set [6] deals with Cholinesterase (Equus caballus, UniProt P81908).
Cholinesterase (Equus caballus, UniProt P81908), sequence (P81908 whole entry): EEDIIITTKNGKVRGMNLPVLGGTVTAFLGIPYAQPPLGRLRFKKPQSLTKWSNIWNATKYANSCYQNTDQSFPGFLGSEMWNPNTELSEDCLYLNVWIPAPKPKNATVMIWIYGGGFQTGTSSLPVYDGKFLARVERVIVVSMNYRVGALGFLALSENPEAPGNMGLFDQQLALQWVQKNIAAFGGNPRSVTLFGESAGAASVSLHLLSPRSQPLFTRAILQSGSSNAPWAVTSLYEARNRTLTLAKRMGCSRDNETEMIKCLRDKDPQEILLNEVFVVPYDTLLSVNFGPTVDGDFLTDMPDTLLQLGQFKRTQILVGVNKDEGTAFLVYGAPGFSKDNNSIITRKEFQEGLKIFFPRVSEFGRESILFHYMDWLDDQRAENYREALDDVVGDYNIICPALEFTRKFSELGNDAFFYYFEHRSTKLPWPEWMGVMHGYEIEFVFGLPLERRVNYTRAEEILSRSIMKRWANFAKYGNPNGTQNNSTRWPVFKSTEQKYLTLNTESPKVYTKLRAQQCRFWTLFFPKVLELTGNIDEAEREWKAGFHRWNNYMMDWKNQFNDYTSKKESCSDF
Description: Inhibition of equine serum BuChE using butyrylthiocholine iodide as substrate measured for 30 mins by Ellman's method
Data set [7] concerns the target Acetylcholinesterase (Homo sapiens, UniProt P22303). The data set can be described thus: Inhibition of AChE (unknown origin).
Data set [8] has as its target Cholinesterase (Homo sapiens, UniProt P06276). The data set is described as follows: Inhibition of BChE (unknown origin).
Data set [9] is described as follows: Neuroprotective activity against glutamate-induced excitotoxicity in Wistar rat hippocampal neurons assessed as increase in intracellular ATP level pretreated with glutamate followed by compound addition measured after 24 hrs by CellTiter-Glo assay (reference value: 70 %). The data set is classed as functional, Hippocampal neuron. In general terms: In ATP-based viability assays light output follows the ATP content of the culture.

A short description of data set [10]: Neuroprotective activity against glutamate-induced excitotoxicity in Wistar rat hippocampal neurons assessed as increase in intracellular ATP level pretreated with compound for 24 hrs followed by incubation with glutamate for 20 mins by CellTiter-Glo assay (reference value: 70 %). In kind it is functional, Hippocampal neuron. As to conditions: time 1460 min; 24.33 h.

Data set [11] can be described thus: Stability in human plasma assessed as compound remaining at 200 uM incubated for 240 mins by HPLC-UV analysis. Particulars: read-out: Stability. The data set is classed as ADME, cell-free.
A short description of data set [12]: Stability in human plasma at pH 7.4 assessed as half life at 200 uM measured up to 240 mins by HPLC-UV analysis. In kind it is ADME, cell-free.
Data set [13] has as its system Astrocyte. The data set can be described thus: Neuroprotective activity against glutamate-induced excitotoxicity in Wistar rat astrocytes co-cultured with neurons assessed as protection against cell injury at 10 uM pretreated with compound for 24 hrs followed by incubation with glutamate for 20 mins by fluorescence based analysis. In kind it is functional. As to conditions: time 1460.0 min.

Data set [14] deals with Astrocyte. The data set can be described thus: Neuroprotective activity against glutamate-induced excitotoxicity in Wistar rat astrocytes assessed as decrease in LDH release at 10 uM pretreated with glutamate followed by compound addition measured after 24 hrs by spectrophotometric analysis relative to control. Details: scale not given: the % may be the effect or the level left. The data set is classed as functional.

Data set [15] in a line: Stability in human plasma at 200 uM measured after 240 mins by HPLC-UV analysis. Particulars: 4 h. In kind it is ADME, cell-free.
Data set [16] relates to Astrocyte. The data set can be described thus: Neuroprotective activity against glutamate-induced excitotoxicity in Wistar rat astrocytes co-cultured with neurons assessed as prevention of disruption of cytoskeleton at 10 uM pretreated with glutamate followed by compound addition measured after 24 hrs by fluorescence based analysis. The data set is classed as functional, cell-based.

In data set [17] the test system is Astrocyte. The data set is described as follows: Neuroprotective activity against glutamate-induced excitotoxicity in Wistar rat astrocytes co-cultured with neurons assessed as prevention of retraction of dendritic spines at 10 uM pretreated with glutamate followed by compound addition measured after 24 hrs by fluorescence based analysis. The data set is classed as functional, cell-based.

Data set [18] deals with Astrocyte. The data set is described as follows: Neuroprotective activity against glutamate-induced excitotoxicity in Wistar rat astrocytes co-cultured with neurons assessed as prevention of collapse of dendritic spines at 10 uM pretreated with glutamate followed by compound addition measured after 24 hrs by fluorescence based analysis. The data set is classed as functional, cell-based.

Data set [19] is described as follows: Cytotoxicity against human HepG2 cells assessed as fold decrease in GI50 incubated for 24 hrs by SRB assay relative to tacrine. In kind it is toxicity, cell-based. Particulars: read-out: RatioGI50. A general note: The SRB assay estimates cell density from bound dye.
Data set [20] deals with Astrocyte. The data set can be described thus: Neuroprotective activity against glutamate-induced excitotoxicity in Wistar rat astrocytes co-cultured with neurons assessed as decrease in LDH release at 10 uM pretreated with compound for 24 hrs followed by glutamate addition for 20 mins by spectrophotometric analysis relative to control. The data set is classed as functional. Details: scale not given: the % may be the effect or the level left. As to conditions: time 1460 min, 24.33 h.

The test system of data set [21] is Astrocyte. The data set can be described thus: Neuroprotective activity against glutamate-induced excitotoxicity in Wistar rat astrocytes co-cultured with neurons assessed as prevention of disruption of cytoskeleton at 10 uM pretreated with compound for 24 hrs followed by incubation with glutamate for 20 mins by fluorescence based analysis. In kind it is functional, cell-based. Particulars: time 1460.0 min.

Data set [22] deals with Astrocyte. The data set can be described thus: Neuroprotective activity against glutamate-induced excitotoxicity in Wistar rat astrocytes co-cultured with neurons assessed as prevention of retraction of dendritic spines at 10 uM pretreated with compound for 24 hrs followed by incubation with glutamate for 20 mins by fluorescence based analysis. In kind it is functional, cell-based. As to conditions: time 1460.0 min.

The subject of data set [23] is Astrocyte. The data set can be described thus: Neuroprotective activity against glutamate-induced excitotoxicity in Wistar rat astrocytes co-cultured with neurons assessed as prevention of collapse of dendritic spines at 10 uM pretreated with compound for 24 hrs followed by incubation with glutamate for 20 mins by fluorescence based analysis. In kind it is functional, cell-based. Particulars: time 1460.0 min.

Data set [24] in a line: Stability in human plasma assessed as compound degradation at 200 uM measured after 240 mins by HPLC-UV analysis. The data set is classed as ADME, cell-free. As to conditions: read-out: Drug degradation.
Data set [25] has as its system HepG2. As to conditions: human, hepg2, 24 h.
Description: Cytotoxicity against human HepG2 cells assessed as total growth inhibition incubated for 24 hrs by SRB assay
The subject of data set [26] is HepG2. Particulars: human, hepg2, 24 h. This is another data set of the same source.
Description: Cytotoxicity against human HepG2 cells assessed as cell population mortality incubated for 24 hrs by SRB assay
For data set [27] the following is noted: mouse, astrocyte, 24 h.
Description: Blood-brain barrier transwell (BBB-T) permeability in mouse bEnd.3 cells (luminal side) to C57BL/6 mouse astrocyte (abluminal side) measured after 24 hrs by Transwell assay
Data set [28] is described as follows: in vitro. Particulars: human, HepG2 cells.
Description: Cytotoxicity against human HepG2 cells assessed as inhibition of cell growth incubated for 24 hrs by SRB assay

This is an account of results in ChEMBL document CHEMBL6182836 (RSC Med Chem, 2025).

Calls of active or inactive are those of the source. No cut-off for these calls is given here.

A word on the IC50: it is the concentration at which inhibition is half-maximal. Usually half-life stands for the time in which the quantity being followed falls by half. One may read the TGI as the concentration at which net growth stops. In general, LC50 refers to the concentration that kills 50% of the test population. The term GI50 denotes the concentration giving 50% growth inhibition.

Cholinesterase (Homo sapiens, UniProt P06276), sequence (P06276 whole entry): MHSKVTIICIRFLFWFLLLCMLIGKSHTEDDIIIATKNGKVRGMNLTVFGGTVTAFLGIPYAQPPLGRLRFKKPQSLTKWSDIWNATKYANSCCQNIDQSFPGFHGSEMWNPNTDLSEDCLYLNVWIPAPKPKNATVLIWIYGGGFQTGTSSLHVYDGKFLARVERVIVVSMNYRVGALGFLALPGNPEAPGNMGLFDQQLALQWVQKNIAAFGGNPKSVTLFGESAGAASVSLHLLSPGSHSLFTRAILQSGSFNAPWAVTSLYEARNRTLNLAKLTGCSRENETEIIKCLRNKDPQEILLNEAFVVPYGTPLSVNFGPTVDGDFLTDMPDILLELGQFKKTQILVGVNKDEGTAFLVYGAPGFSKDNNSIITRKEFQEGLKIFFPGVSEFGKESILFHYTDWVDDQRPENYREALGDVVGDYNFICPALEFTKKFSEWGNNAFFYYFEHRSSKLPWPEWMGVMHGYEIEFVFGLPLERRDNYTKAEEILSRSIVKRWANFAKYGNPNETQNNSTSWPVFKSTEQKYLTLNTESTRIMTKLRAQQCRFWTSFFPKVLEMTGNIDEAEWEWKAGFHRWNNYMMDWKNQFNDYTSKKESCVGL
Acetylcholinesterase (Electrophorus electricus, UniProt O42275), sequence (O42275 whole entry): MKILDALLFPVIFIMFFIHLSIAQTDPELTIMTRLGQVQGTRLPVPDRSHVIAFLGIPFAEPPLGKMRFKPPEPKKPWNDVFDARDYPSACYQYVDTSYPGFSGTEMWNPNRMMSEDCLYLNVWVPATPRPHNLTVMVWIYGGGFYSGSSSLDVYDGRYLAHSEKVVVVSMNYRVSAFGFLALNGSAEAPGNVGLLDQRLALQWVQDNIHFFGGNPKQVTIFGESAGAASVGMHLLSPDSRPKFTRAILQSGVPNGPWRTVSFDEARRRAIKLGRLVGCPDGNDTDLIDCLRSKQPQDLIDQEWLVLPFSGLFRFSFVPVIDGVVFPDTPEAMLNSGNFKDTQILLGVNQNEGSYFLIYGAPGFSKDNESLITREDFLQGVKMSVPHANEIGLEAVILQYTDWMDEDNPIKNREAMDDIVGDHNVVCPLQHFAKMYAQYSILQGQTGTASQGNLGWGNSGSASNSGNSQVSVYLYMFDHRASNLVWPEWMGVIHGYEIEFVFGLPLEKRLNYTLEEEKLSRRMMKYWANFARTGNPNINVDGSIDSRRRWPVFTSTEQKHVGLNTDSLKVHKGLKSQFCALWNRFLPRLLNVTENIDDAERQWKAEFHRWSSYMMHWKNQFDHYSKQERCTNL
Acetylcholinesterase (Homo sapiens, UniProt P22303), sequence (P22303 whole entry): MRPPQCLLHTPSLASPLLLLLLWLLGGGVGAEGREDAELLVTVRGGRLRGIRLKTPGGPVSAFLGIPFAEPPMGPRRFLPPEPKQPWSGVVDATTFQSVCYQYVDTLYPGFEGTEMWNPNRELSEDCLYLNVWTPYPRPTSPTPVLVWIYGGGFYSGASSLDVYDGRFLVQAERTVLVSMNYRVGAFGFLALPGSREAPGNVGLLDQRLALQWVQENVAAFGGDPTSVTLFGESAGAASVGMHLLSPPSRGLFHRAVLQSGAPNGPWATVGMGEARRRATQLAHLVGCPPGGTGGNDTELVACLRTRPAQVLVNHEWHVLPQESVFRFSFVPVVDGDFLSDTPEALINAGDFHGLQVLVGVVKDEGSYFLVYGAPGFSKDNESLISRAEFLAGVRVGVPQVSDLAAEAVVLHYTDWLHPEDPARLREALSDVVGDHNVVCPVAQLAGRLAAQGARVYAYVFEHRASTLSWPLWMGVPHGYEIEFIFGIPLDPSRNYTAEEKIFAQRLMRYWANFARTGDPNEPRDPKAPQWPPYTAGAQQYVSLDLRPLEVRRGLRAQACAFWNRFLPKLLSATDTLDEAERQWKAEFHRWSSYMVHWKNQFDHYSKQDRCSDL

For `CN(C)c1ccc(C(C#N)N2CCN(CC(=O)Nc3c4c(nc5ccccc35)CCC4)CC2)cc1` (racemic), the values for the IC50 in [1] (read-out: IC50) and in [6] were 0.48 µM and 0.41 µM, respectively. Besides, the Activity entry in [2] is “Non-toxic”; in [3], “Toxic”; in [4], 34.63%; in [5], 22.03%. Also, the concentration for half-maximal inhibition (IC50) at 24 h in data set [3] is 218 µM.

As to `COc1cc2c(cc1OC)CC(CN1CCN(CCCNc3c4c(nc5cc(Cl)ccc35)C[C@H]3C=C(C)C[C@@H]4C3)CC1)C2`, the 50% inhibitory concentration (IC50) amounted to 0.00261 µM in data set [7] and 0.349 µM in [8].

For the compound `COc1ccc(C(C#N)N2CCN(CC(=O)Nc3c4c(nc5ccccc35)CCC4)CC2)cc1` (racemic), the concentration for half-maximal inhibition (IC50) entry in data set [1] is “Not_active”; in data set [6], 0.64 µM. Further, the Activity entry is on record as “Non-toxic” in data set [2], “Toxic” in data set [3], 40.71% in data set [4] and 28.81% in [5]. Moreover, in [3], the 50% inhibitory concentration (IC50) at 24 h was determined as 436 µM.

For the compound `COc1cccc(C(C#N)N2CCN(CC(=O)Nc3c4c(nc5ccccc35)CCC4)CC2)c1OC` (racemic), the figures for the 50% inhibitory concentration (IC50) in data set [1] (read-out: IC50) and in data set [6] were 0.44 µM and 0.31 µM, respectively. The Activity entry in data set [2] is reported as “Non-toxic”; in [3], “Toxic”; in [4], 71.05%; in data set [5], 47.45%; in data set [9] it was 51.85%; in data set [10] it was 31.11%. For the same compound, the figures for the Activity in data set [14] and in [20] were approximately 52% and approximately 33%, respectively. The concentration for half-maximal inhibition (IC50) at 24 h in data set [3] worked out at 476 µM. Besides, the remaining at 4 h, 200 µM in [11] came out at 52.4%. Besides, the half-life at 200 µM in data set [12] is 4.8 h. The result in data set [13], in data set [16], in [17], in [18], in data set [21] and in data set [22] was Active. In [23], the result was Active. Also, in data set [15], the Stability entry was “Stable”. Also, the selectivity ratio at 24 h in data set [19] is 8. In data set [24], the metabolised at 4 h, 200 µM is approximately 48%. In data set [25], this compound yielded a TGI of 188.16 µM. In data set [26], this compound returned an LC50 of more than 200 µM. Besides, in [27], the permeability was determined as 58%. The compound further gave a 50% growth inhibitory concentration (GI50) at 24 h in [28] of 93.5 µM.

As for `Cc1cc(=O)[nH]c2c1C(=O)C(NCNc1c3c(nc4ccccc14)CCCC3)=CC2=O`, the values for the IC50 in data set [7] and in [8] were 0.0111 µM and 0.18 µM, respectively.

As for `COc1ccc(C(C#N)N2CCN(CC(=O)Nc3c4c(nc5ccccc35)CCC4)CC2)cc1OC` (racemic), the half-maximal inhibitory concentration (IC50) result was “Not_active” in data set [1] and 0.44 µM in data set [6]. The Activity entry in data set [2] was “Non-toxic”; in data set [3] it was “Toxic”; in [4], 58.28%; in [5], 38.98%. In [3], the half-maximal inhibitory concentration (IC50) at 24 h worked out at 260 µM.

`COc1cc(OC)cc(C(C#N)N2CCN(CC(=O)Nc3c4c(nc5ccccc35)CCC4)CC2)c1` (racemic): the half-maximal inhibitory concentration (IC50) entry in data set [1] is “Not_active”; in data set [6], 0.69 µM. For the same compound, the Activity result in data set [2] is given as “Non-toxic”; in data set [3] it was “Toxic”; in data set [4], 62.67%; in data set [5], 35.59%. The half-inhibitory concentration (IC50) at 24 h in data set [3] is 298 µM.

As for `COc1ccc(OC)c(C(C#N)N2CCN(CC(=O)Nc3c4c(nc5ccccc35)CCC4)CC2)c1` (racemic), the IC50 result is “Not_active” in data set [1] and 1.72 µM in [6]. The Activity result in data set [2] is given as “Non-toxic”; in data set [3], “Toxic”; in [4], 63.52%; in [5], 30.83%. In addition, in [3], the IC50 at 24 h was 427 µM.

Turning to `O=C(NCCCNc1c2c(nc3ccccc13)CCC2)c1cnc(Cl)c(Cl)c1`, the IC50 in data set [7] is 0.052 µM; in data set [8], 0.158 µM.

Regarding `COc1ccc(C(C#N)N2CCN(CC(=O)Nc3c4c(nc5ccccc35)CCC4)CC2)c(OC)c1` (racemic), the IC50 result in data set [1] is “Not_active”; in data set [6], 0.91 µM. Moreover, the Activity result in data set [2] is “Non-toxic”; in data set [3], “Toxic”; in data set [4] it was 63.15%; in data set [5] it was 44.97%. Besides, the IC50 at 24 h in data set [3] amounted to 364 µM.

Take `CC12CC3CC(C)(C1)CC(N)(C3)C2` [MEMANTINE]: in [3], the concentration for half-maximal inhibition (IC50) at 24 h was determined as 272 µM. Moreover, the Activity is listed as 36.84% in [4], 46.61% in data set [5], 44.44% in data set [9] and 10.37% in [10].
